From ChEMBL document CHEMBL3797052 (Eur J Med Chem, 2016)

Test system: not listed separately
Assay: Antiproliferative activity against human BT549 cells assessed as cell growth at 10^-7 M after 48 hrs by sulforhodamine B assay
Format: functional
Conditions: BT-549, 48 h, read-out: Activity

Row | Structure (SMILES) | growth at 0.1 µM [%]
1 | CNC(=O)c1cc(Oc2ccc3nc(NC(=O)Nc4ccc(Cl)c(C(F)(F)F)c4)sc3c2)ccn1 | 100

Test system: not listed separately
Assay: Antiproliferative activity against human NCI-ADR-RES cells assessed as cell growth at 10^-6 M after 48 hrs by sulforhodamine B assay
Format: functional
Conditions: read-out: Activity

Row | Structure (SMILES) | growth at 1 µM [%]
2 | CNC(=O)c1cc(Oc2ccc3nc(NC(=O)Nc4ccc(Cl)c(C(F)(F)F)c4)sc3c2)ccn1 | 94

Test system: HT-29
Assay: Antiproliferative activity against human HT-29 cells assessed as growth inhibition after 48 hrs by sulforhodamine B assay
Format: functional
Conditions: HT-29, 48 h

Row | Structure (SMILES) | LC50 [µM] | TGI [µM]
3 | CNC(=O)c1cc(Oc2ccc3nc(NC(=O)Nc4ccc(Cl)c(C(F)(F)F)c4)sc3c2)ccn1 | > 100 | > 100

Test system: not listed separately
Assay: Antiproliferative activity against human PC3 cells assessed as cell growth at 10^-6 M after 48 hrs by sulforhodamine B assay
Format: functional
Conditions: PC-3, 48 h, read-out: Activity

Row | Structure (SMILES) | growth at 1 µM [%]
4 | CNC(=O)c1cc(Oc2ccc3nc(NC(=O)Nc4ccc(Cl)c(C(F)(F)F)c4)sc3c2)ccn1 | 71

Test system: not listed separately
Assay: Antiproliferative activity against human OVCAR8 cells assessed as cell growth at 10^-7 M after 48 hrs by sulforhodamine B assay
Format: functional
Conditions: OVCAR-8, 48 h, read-out: Activity

Row | Structure (SMILES) | growth at 0.1 µM [%]
5 | CNC(=O)c1cc(Oc2ccc3nc(NC(=O)Nc4ccc(Cl)c(C(F)(F)F)c4)sc3c2)ccn1 | 108

Test system: MDA-MB-231
Assay: Antiproliferative activity against human MDA-MB-231 cells assessed as cell growth at 10^-4 M after 48 hrs by sulforhodamine B assay
Format: functional
Conditions: MDA-MB-231, 48 h, read-out: Activity

Row | Structure (SMILES) | growth at 100 µM [%]
6 | CNC(=O)c1cc(Oc2ccc3nc(NC(=O)Nc4ccc(Cl)c(C(F)(F)F)c4)sc3c2)ccn1 | -53

Test system: not listed separately
Assay: Antiproliferative activity against human SF295 cells assessed as growth inhibition after 48 hrs by sulforhodamine B assay
Format: functional
Conditions: SF-295, 48 h

Row | Structure (SMILES) | GI50 [µM] | TGI [µM]
7 | CNC(=O)c1cc(Oc2ccc3nc(NC(=O)Nc4ccc(Cl)c(C(F)(F)F)c4)sc3c2)ccn1 | 1.79 | 3.71

Same assay, conditions: SF-295, 48 h, read-out: LC50 (the source's name)

Row | Structure (SMILES) | CC50 [µM]
8 | CNC(=O)c1cc(Oc2ccc3nc(NC(=O)Nc4ccc(Cl)c(C(F)(F)F)c4)sc3c2)ccn1 | 7.66

Test system: MCF7
Assay: Antiproliferative activity against human MCF7 cells assessed as growth inhibition after 48 hrs by sulforhodamine B assay
Format: functional
Conditions: MCF7, 48 h

Row | Structure (SMILES) | GI50 [µM]
9 | CNC(=O)c1cc(Oc2ccc3nc(NC(=O)Nc4ccc(Cl)c(C(F)(F)F)c4)sc3c2)ccn1 | 1.72

Same assay, conditions: MCF7, 48 h, read-out: LC50 (the source's name)

Row | Structure (SMILES) | CC50 [µM]
10 | CNC(=O)c1cc(Oc2ccc3nc(NC(=O)Nc4ccc(Cl)c(C(F)(F)F)c4)sc3c2)ccn1 | > 100

Target: T1, CYP1A2 (Homo sapiens, UniProt P05177)
T1 sequence (P05177 whole entry): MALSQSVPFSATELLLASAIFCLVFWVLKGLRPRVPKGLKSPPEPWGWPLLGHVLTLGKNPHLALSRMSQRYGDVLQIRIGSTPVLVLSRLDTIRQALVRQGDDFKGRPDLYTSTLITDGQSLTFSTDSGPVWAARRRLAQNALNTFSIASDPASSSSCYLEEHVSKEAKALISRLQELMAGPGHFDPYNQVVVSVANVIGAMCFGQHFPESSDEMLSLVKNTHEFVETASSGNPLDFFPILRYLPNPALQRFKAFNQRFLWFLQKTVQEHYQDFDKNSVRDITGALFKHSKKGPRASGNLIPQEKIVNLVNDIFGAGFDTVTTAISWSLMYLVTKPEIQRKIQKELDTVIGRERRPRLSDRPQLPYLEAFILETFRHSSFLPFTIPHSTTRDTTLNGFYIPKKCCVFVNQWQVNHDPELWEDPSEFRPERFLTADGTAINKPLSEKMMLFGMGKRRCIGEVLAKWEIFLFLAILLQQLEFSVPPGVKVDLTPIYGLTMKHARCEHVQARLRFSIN
Assay: Inhibition of recombinant human CYP1A2 assessed as remaining enzyme activity using CYP1A2 blue as substrate at 10 uM after 5 mins in presence of NADP by fluorescence plate reader analysis
Format: ADME
Conditions: recombinant human CYP1A2, probe CYP1A2 blue, read-out: Activity

Row | Structure (SMILES) | activity at 5 min, 10 µM [%]
11 | CNC(=O)c1cc(Oc2ccc3nc(NC(=O)Nc4ccc(Cl)c(C(F)(F)F)c4)sc3c2)ccn1 | 106

Test system: not listed separately
Assay: Antiproliferative activity against human OVCAR4 cells assessed as growth inhibition after 48 hrs by sulforhodamine B assay
Format: functional
Conditions: OVCAR-4, 48 h

Row | Structure (SMILES) | GI50 [µM] | TGI [µM]
12 | CNC(=O)c1cc(Oc2ccc3nc(NC(=O)Nc4ccc(Cl)c(C(F)(F)F)c4)sc3c2)ccn1 | 1.59 | 3.31

Test system: not listed separately
Assay: Antiproliferative activity against human RPMI8226 cells assessed as cell growth at 10^-6 M after 48 hrs by sulforhodamine B assay
Format: functional
Conditions: RPMI-8226, 48 h, read-out: Activity

Row | Structure (SMILES) | growth at 1 µM [%]
13 | CNC(=O)c1cc(Oc2ccc3nc(NC(=O)Nc4ccc(Cl)c(C(F)(F)F)c4)sc3c2)ccn1 | 82

Test system: NCI-H522
Assay: Antiproliferative activity against human NCI-H522 cells assessed as growth inhibition after 48 hrs by sulforhodamine B assay
Format: functional
Conditions: NCI-H522, 48 h

Row | Structure (SMILES) | GI50 [µM] | LC50 (concentration killing 50% of cells) [µM] | TGI [µM]
14 | CNC(=O)c1cc(Oc2ccc3nc(NC(=O)Nc4ccc(Cl)c(C(F)(F)F)c4)sc3c2)ccn1 | 2.54 | > 100 | > 100

Test system: HT-29
Assay: Antiproliferative activity against human HT-29 cells assessed as cell growth at 10^-6 M after 48 hrs by sulforhodamine B assay
Format: functional
Conditions: HT-29, 48 h, read-out: Activity

Row | Structure (SMILES) | growth at 1 µM [%]
15 | CNC(=O)c1cc(Oc2ccc3nc(NC(=O)Nc4ccc(Cl)c(C(F)(F)F)c4)sc3c2)ccn1 | 91

Test system: not listed separately
Assay: Antiproliferative activity against human IGROV1 cells assessed as growth inhibition after 48 hrs by sulforhodamine B assay
Format: functional
Conditions: IGROV-1, 48 h

Row | Structure (SMILES) | GI50 [µM] | TGI [µM]
16 | CNC(=O)c1cc(Oc2ccc3nc(NC(=O)Nc4ccc(Cl)c(C(F)(F)F)c4)sc3c2)ccn1 | 2.02 | 5.12

Same assay, conditions: IGROV-1, 48 h, read-out: LC50 (the source's name)

Row | Structure (SMILES) | CC50 [µM]
17 | CNC(=O)c1cc(Oc2ccc3nc(NC(=O)Nc4ccc(Cl)c(C(F)(F)F)c4)sc3c2)ccn1 | > 100

Test system: not listed separately
Assay: Antiproliferative activity against human UO31 cells assessed as growth inhibition after 48 hrs by sulforhodamine B assay
Format: functional
Conditions: UO-31, 48 h

Row | Structure (SMILES) | GI50 [µM]
18 | CNC(=O)c1cc(Oc2ccc3nc(NC(=O)Nc4ccc(Cl)c(C(F)(F)F)c4)sc3c2)ccn1 | 2.17

Test system: not listed separately
Assay: Antiproliferative activity against human SW620 cells assessed as cell growth at 10^-7 M after 48 hrs by sulforhodamine B assay
Format: functional
Conditions: SW-620, 48 h, read-out: Activity

Row | Structure (SMILES) | growth at 0.1 µM [%]
19 | CNC(=O)c1cc(Oc2ccc3nc(NC(=O)Nc4ccc(Cl)c(C(F)(F)F)c4)sc3c2)ccn1 | 101

Test system: not listed separately
Assay: Antiproliferative activity against human OVCAR4 cells assessed as cell growth at 10^-7 M after 48 hrs by sulforhodamine B assay
Format: functional
Conditions: OVCAR-4, 48 h, read-out: Activity

Row | Structure (SMILES) | growth at 0.1 µM [%]
20 | CNC(=O)c1cc(Oc2ccc3nc(NC(=O)Nc4ccc(Cl)c(C(F)(F)F)c4)sc3c2)ccn1 | 95

Test system: not listed separately
Assay: Antiproliferative activity against human LOXIMVI cells assessed as cell growth at 10^-8 M after 48 hrs by sulforhodamine B assay
Format: functional
Conditions: LOX IMVI, read-out: Activity

Row | Structure (SMILES) | growth at 0.01 µM [%]
21 | CNC(=O)c1cc(Oc2ccc3nc(NC(=O)Nc4ccc(Cl)c(C(F)(F)F)c4)sc3c2)ccn1 | 99

Test system: not listed separately
Assay: Antiproliferative activity against human SNB19 cells assessed as cell growth at 10^-4 M after 48 hrs by sulforhodamine B assay
Format: functional
Conditions: SNB-19, 48 h, read-out: Activity

Row | Structure (SMILES) | growth at 100 µM [%]
22 | CNC(=O)c1cc(Oc2ccc3nc(NC(=O)Nc4ccc(Cl)c(C(F)(F)F)c4)sc3c2)ccn1 | -49

Test system: not listed separately
Assay: Antiproliferative activity against human HL-60(TB) cells assessed as growth inhibition after 48 hrs by sulforhodamine B assay
Format: functional
Conditions: HL-60, 48 h

Row | Structure (SMILES) | GI50 [µM] | TGI [µM]
23 | CNC(=O)c1cc(Oc2ccc3nc(NC(=O)Nc4ccc(Cl)c(C(F)(F)F)c4)sc3c2)ccn1 | > 100 | > 100

Same assay, conditions: HL-60, 48 h, read-out: LC50 (the source's name)

Row | Structure (SMILES) | CC50 [µM]
24 | CNC(=O)c1cc(Oc2ccc3nc(NC(=O)Nc4ccc(Cl)c(C(F)(F)F)c4)sc3c2)ccn1 | > 100

Test system: SN12C
Assay: Antiproliferative activity against human SN12C cells assessed as cell growth at 10^-6 M after 48 hrs by sulforhodamine B assay
Format: functional
Conditions: read-out: Activity

Row | Structure (SMILES) | growth at 1 µM [%]
25 | CNC(=O)c1cc(Oc2ccc3nc(NC(=O)Nc4ccc(Cl)c(C(F)(F)F)c4)sc3c2)ccn1 | 81

Test system: MCF7
Assay: Antiproliferative activity against human MCF7 cells assessed as cell growth at 10^-6 M after 48 hrs by sulforhodamine B assay
Format: functional
Conditions: MCF7, 48 h, read-out: Activity

Row | Structure (SMILES) | growth at 1 µM [%]
26 | CNC(=O)c1cc(Oc2ccc3nc(NC(=O)Nc4ccc(Cl)c(C(F)(F)F)c4)sc3c2)ccn1 | 66

Test system: NCI-H460
Assay: Antiproliferative activity against human NCI-H460 cells assessed as cell growth at 10^-7 M after 48 hrs by sulforhodamine B assay
Format: functional
Conditions: NCI-H460, 48 h, read-out: Activity

Row | Structure (SMILES) | growth at 0.1 µM [%]
27 | CNC(=O)c1cc(Oc2ccc3nc(NC(=O)Nc4ccc(Cl)c(C(F)(F)F)c4)sc3c2)ccn1 | 103

Test system: not listed separately
Assay: Antiproliferative activity against human SKOV3 cells assessed as cell growth at 10^-6 M after 48 hrs by sulforhodamine B assay
Format: functional
Conditions: SK-OV-3, 48 h, read-out: Activity

Row | Structure (SMILES) | growth at 1 µM [%]
28 | CNC(=O)c1cc(Oc2ccc3nc(NC(=O)Nc4ccc(Cl)c(C(F)(F)F)c4)sc3c2)ccn1 | 90

Test system: M14
Assay: Antiproliferative activity against human M14 cells assessed as growth inhibition after 48 hrs by sulforhodamine B assay
Format: functional
Conditions: M14, 48 h

Row | Structure (SMILES) | GI50 [µM]
29 | CNC(=O)c1cc(Oc2ccc3nc(NC(=O)Nc4ccc(Cl)c(C(F)(F)F)c4)sc3c2)ccn1 | 1.96

Same assay, conditions: M14, 48 h, read-out: LC50 (the source's name)

Row | Structure (SMILES) | CC50 [µM]
30 | CNC(=O)c1cc(Oc2ccc3nc(NC(=O)Nc4ccc(Cl)c(C(F)(F)F)c4)sc3c2)ccn1 | > 100

Test system: SK-MEL-28
Assay: Antiproliferative activity against human SK-MEL-28 cells assessed as cell growth at 10^-7 M after 48 hrs by sulforhodamine B assay
Format: functional
Conditions: SK-MEL-28, 48 h, read-out: Activity

Row | Structure (SMILES) | growth at 0.1 µM [%]
31 | CNC(=O)c1cc(Oc2ccc3nc(NC(=O)Nc4ccc(Cl)c(C(F)(F)F)c4)sc3c2)ccn1 | 92

Test system: not listed separately
Assay: Antiproliferative activity against human PC3 cells assessed as cell growth at 10^-8 M after 48 hrs by sulforhodamine B assay
Format: functional
Conditions: PC-3, 48 h, read-out: Activity

Row | Structure (SMILES) | growth at 0.01 µM [%]
32 | CNC(=O)c1cc(Oc2ccc3nc(NC(=O)Nc4ccc(Cl)c(C(F)(F)F)c4)sc3c2)ccn1 | 92

Test system: not listed separately
Assay: Antiproliferative activity against human SF539 cells assessed as cell growth at 10^-4 M after 48 hrs by sulforhodamine B assay
Format: functional
Conditions: SF-539, 48 h, read-out: Activity

Row | Structure (SMILES) | growth at 100 µM [%]
33 | CNC(=O)c1cc(Oc2ccc3nc(NC(=O)Nc4ccc(Cl)c(C(F)(F)F)c4)sc3c2)ccn1 | -49

Test system: not listed separately
Assay: Antiproliferative activity against human UACC62 cells assessed as cell growth at 10^-6 M after 48 hrs by sulforhodamine B assay
Format: functional
Conditions: UACC-62, 48 h, read-out: Activity

Row | Structure (SMILES) | growth at 1 µM [%]
34 | CNC(=O)c1cc(Oc2ccc3nc(NC(=O)Nc4ccc(Cl)c(C(F)(F)F)c4)sc3c2)ccn1 | 83
